Laboratory results published in ChEMBL document CHEMBL1145624, “The isolation, structure determination and cytotoxicity of the new fungal metabolite, trichodermamide C” (Bioorg Med Chem Lett, 2008).
≈ marks a conversion by molar mass, not a printed value.

Experiments:
HCT-116 = assay: Cytotoxicity against human HCT116 cells after 24 hrs; type: functional, cell-based; settings: HCT-116, 24 h
A549 = assay: Cytotoxicity against human A549 cells after 24 hrs; type: functional, cell-based; settings: A549, 24 h

Question: Which IC50 (HCT-116) does the source give for `COc1ccc2cc(N(C)C(=O)C3=NO[C@H]4[C@H](O)C=C[C@@H](O)[C@@]4(O)C3)c(=O)oc2c1OC` [TRICHODERMAMIDE C] here?
Answer: 0.68 µg/mL (≈ 1.52 µM)

Question: And the IC50 (A549)?
Answer: 4.28 µg/mL (≈ 9.59 µM)
